How the values were obtained:
[1] = test system: HT1080 cells; test: BrdU incorporation (DNA synthesis) in quiescent HT1080 cells; assay type: cell-based, human; conditions: 18 h, EGF 100 ng/ml; for Inhibition of EGF-induced BrdU incorporation (DNA synthesis): Casodex 10 μM, S1 and Ss peptides 1 nM, BrdU by IF, % of total nuclei
Experimental: Human fibrosarcoma HT1080 cells were used. In A, quiescent cells on coverslips were left un-stimulated or stimulated for 18 h with the indicated compounds. […] After in vivo pulse with BrdU (100 μM; Sigma), BrdU incorporation was analyzed by IF and expressed as % of total nuclei. Several independent experiments were performed in duplicate and the results were derived from at least 400 scored cells for each coverslip. Mean and SEM are shown. n represents the number of experiments. […] In B, xenografts were established in nude male mice as described in Methods. On alternate days, animals were intra-peritoneally injected with vehicle alone (vehicle), or the pure androgen antagonist Casodex (Cx: 0.1 μg/mice; 4µg/Kg body weight), or DHT (DHT: 0,1 μg/mice; 3 μg/Kg body weight) alone. Volumes of HT1080 cell xenografts were measured at the indicated times in two dimensions by a caliper and expressed as tumor mass (mm^3). Mean and SEM are shown. n represents the number of experiments.
Quiescent HT1080 cells were used. […] Casodex (at 10 μM) was used for comparison with the S1 peptide. Upper section in A, Western blot of HT1080 cell lysates with anti-EGFR antibody. […] In B, lysates were immune-precipitated with the anti-Src MAb and Src activity in immune complexes was assayed using acidified enolase, as a substrate. In C, cells on coverslips were left untreated or treated for 18 h with the indicated compounds. After in vivo pulse with BrdU (100 μM), BrdU incorporation was analyzed by IF and expressed as % of total nuclei. Several independent experiments were performed in duplicate and the results were obtained from at least 500 scored cells for each coverslip. Mean and SEM are shown. n represents the number of experiments.

[2] = test system: LNCaP cells; test: Trans-well migration of LNCaP cells; assay type: cell-based, human; conditions: quiescent LNCaP cells, EGF 100 ng/ml, 6 h; for Inhibition of EGF-induced motility (transmigration): Casodex 10 μM, S1 and Ss peptides 1 nM
[3] = test system: HT1080 cells; conditions: various cell types, including HT1080 cells (Figure S1); cited from earlier work
Description: (§1) Such a crosstalk has been previously analyzed in prostate cancer-derived LNCaP cells. […] The S1 peptide derives from the 377-386 amino-acid sequence of AR that is rich in prolines and is responsible for association of AR with t ...

[4] = test system: AR/Src complex; parameters: method as in PMID 17486077; conditions: androgen-challenged prostate cancer LNCaP cells; cited from earlier work
Description: as §1

[5] = test system: HT1080 cell xenografts; test: HT1080 cell xenografts in nude male mice, tumor mass; assay type: in vivo; conditions: i.p. on alternate days for 4 weeks, Casodex 0.1 μg/mice (4 µg/Kg), DHT 0,1 μg/mice (3 μg/Kg), six animals per group
Experimental: Figure 1 Casodex inhibits the EGF-triggered DNA synthesis in human fibrosarcoma HT1080 cells and reduces the growth of HT1080 xenografts. Human fibrosarcoma HT1080 cells were used. In A, quiescent cells on coverslips were left un-stimulated or stimulated for 18 h with the indicated compounds. […] After in vivo pulse with BrdU (100 μM; Sigma), BrdU incorporation was analyzed by IF and expressed as % of total nuclei. Several independent experiments were performed in duplicate and the results were derived from at least 400 scored cells for each coverslip. Mean and SEM are shown. n represents the number of experiments. (**) p value< 0,001. […] In B, xenografts were established in nude male mice as described in Methods. […] Volumes of HT1080 cell xenografts were measured at the indicated times in two dimensions by a caliper and expressed as tumor mass (mm^3). […]
HT1080 cells in 50% (v/v) Matrigel solution in phosphate-buffered saline (PBS; pH 7.4) were subcutaneously injected in the dorsal posterior region at 2.5 x 10^6 cells/male athymic mice (CD mice, Charles-River Italia) without hormone priming. […] The tumor volumes of HT1080 cell xenografts were measured at indicated intervals in two dimensions by a caliper and expressed as tumor mass (mm^3). This is calculated according to the formula: a^2 × b × 0.5, where a is the width and b is the length of the tumor. […]

[6] = Body weight of xenografted mice; assay type: in vivo; conditions: Casodex i.p. on alternate days, 4 weeks; weighed twice weekly
Description: HT1080 cells in 50% (v/v) Matrigel solution in phosphate-buffered saline (PBS; pH 7.4) were subcutaneously injected in the dorsal posterior region at 2.5 x 10^6 cells/male athymic mice (CD mice, Charles-River Italia) without hormone priming. Animals were randomly selected for the treatment with Casodex (dissolved in 0.1% ethanol) or DHT (dissolved in 0.1% ethanol) or control vehicle intra-peritoneally for a total of 4 weeks. Each group consisted of six animals. For the treatment of each animal (average weight: 25.08 g), 200 μl of 1 μM Casodex (about 0.1 µg) in 0.1% ethanol or 200 μl of 1 μM DHT (about 3 μg/Kg body weight) or the same amount of vehicle alone were administered to the mice on alternate days. The tumor volumes of HT1080 cell xenografts were measured at indicated intervals in two dimensions by a caliper and expressed as tumor mass (mm^3). This is calculated according to the formula: a^2 × b × 0.5, where a is the width and b is the length of the tumor. Food and water were given ad libitum. […] Animal experimentation was reviewed and approved by the Animal Research Ethical Committee of “Istituto per la Diagnosi e la Cura dei Tumori- Fondazione “G. Pascale” (Naples-ITALY).

EGF: epidermal growth factor (Roche), used as stimulus at 100 ng/ml
BrdU incorporation (DNA synthesis) upon stimulation with the compound alone ([1]; R1881 and DHT 10 nM): significantly incorporate BrdU
Motility in transmigration assay upon stimulation [2]: significantly increases the motility

Ac-PPPHPHARIK-NH2 [S1 peptide]
Diffusion across membranes [3]: rapidly diffuses across membranes
Inhibition of EGF-induced BrdU incorporation (DNA synthesis) [1]: abolishes the mitogenic response elicited by EGF
Inhibition of EGF-induced motility (transmigration) [2]: inhibited to a similar extent
Competition for AR association with the Src-SH3 domain [4]: competes for this association

CC(O)(CS(=O)(=O)c1ccc(F)cc1)C(=O)Nc1ccc(C#N)c(C(F)(F)F)c1 (centres unmarked) [Casodex]
Growth of HT1080 xenografts (tumor mass) [5]: tumor growth was drastically reduced
Inhibition of EGF-induced BrdU incorporation (DNA synthesis) [1]: inhibits the EGF-induced BrdU incorporation
Inhibition of EGF-induced motility (transmigration) [2]: inhibited to a similar extent
Body weight versus control mice [6]: no difference in body weight

Ac-HPKPARIPHP-NH2 [Ss peptide]
Inhibition of EGF-induced BrdU incorporation (DNA synthesis) [1]: only slightly affects

Source: PMC3793924, “Targeting Androgen Receptor/Src Complex Impairs the Aggressive Phenotype of Human Fibrosarcoma Cells” (PLoS ONE, 2013)
